In patent US10167262B2, “Herbicidal substituted 3-arylpyrazoles” (FMC CORPORATION, priority 2014, dated 2019):

Assays:
Assay type in all cases: in vivo
[1] = system: bermudagrass (Cynodon dactylon); assay: Test C postemergence greenhouse test, plant response rating 0-100; conditions: for Plant response rating, Bermudagrass: scale 0 to 100
Procedure, shortened: (§1)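 Visual rating vs. controls, 0 (no effect) to 100 (complete control), 13–15 d after postemergence treatment. Potted plants, 1- to 4-leaf stage (2–18 cm), greenhouse-held.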

[2] = system: canarygrass (Phalaris minor); assay: as above; conditions: for Plant response rating, Canarygrass: scale 0 to 100
Procedure, shortened: as §1

[3] = system: cocklebur (common cocklebur, Xanthium strumarium); assay: as above; conditions: for Plant response rating, Cocklebur: scale 0 to 100
Procedure, shortened: as §1

[4] = system: deadnettle (henbit deadnettle, Lamium amplexicaule); assay: as above; conditions: for Plant response rating, Deadnettle: scale 0 to 100
Procedure, shortened: as §1

[5] = system: downy bromegrass (Bromus tectorum); assay: as above; conditions: for Plant response rating, Bromegrass, Downy: scale 0 to 100
Procedure, shortened: as §1

[6] = system: green foxtail (Setaria viridis); assay: as above; conditions: for Plant response rating, Foxtail, Green: scale 0 to 100
Procedure, shortened: as §1

[7] = system: surinam grass (Brachiaria decumbens); assay: as above; conditions: for Plant response rating, Surinam Grass: scale 0 to 100
Procedure, shortened: as §1

[8] = system: windgrass (Apera spica-venti); assay: as above; conditions: for Plant response rating, Windgrass: scale 0 to 100
Procedure, shortened: as §1

[9] = system: winter barley (Hordeum vulgare); assay: as above; conditions: for Plant response rating, Barley: scale 0 to 100
Procedure, shortened: as §1

[10] = system: woolly cupgrass (Eriochloa villosa); assay: as above; conditions: for Plant response rating, Cupgrass, Woolly: scale 0 to 100
Procedure, shortened: as §1

[11] = system: giant foxtail (Setaria faberii); assay: Test E pre-/postemergence greenhouse test, plant response rating 0-100; conditions: Preemergence, scale 0 to 100
kochia (Kochia scoparia) = assay: as above; conditions: Preemergence, scale 0 to 100
Procedure, shortened: (§2)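 Visual control score, 0–100 relative to untreated plants, recorded 14–21 days after spraying. Treatments: preemergence on silt loam seedbeds and postemergence at the 1- to 4-leaf stage, with compound in surfactant-containing solvent.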

[12] = system: ragweed (common ragweed, Ambrosia elatior); assay: as above; conditions: Preemergence, scale 0 to 100
Procedure, shortened: as §2

[13] = system: surinam grass (Brachiaria decumbens); assay: as above; conditions: Preemergence, scale 0 to 100
Procedure, shortened: as §2

[14] = system: velvetleaf (Abutilon theophrasti); assay: as above; conditions: Preemergence, scale 0 to 100
Procedure, shortened: as §2

[15] = system: smartweed (ladysthumb smartweed, Polygonum persicaria); assay: as above; conditions: Postemergence, scale 0 to 100

C#CCn1cc(C(=O)c2ccccc2)c(-c2cc(Cl)cc(Cl)c2)n1 [Compound 39, [3-(3,5-dichlorophenyl)-1-(2-propyn-1-yl)-1H-pyrazol-4-yl]phenylmethanone]
Plant response rating (0 to 100), Bermudagrass ([1]; 62 g ai/ha): 0
Plant response rating (0 to 100), Bermudagrass ([1]; 125 g ai/ha): 0
Plant response rating, Bermudagrass ([1]; 250 g ai/ha): 0
Plant response rating, Bermudagrass ([1]; 500 g ai/ha): 0
Plant response rating (0 to 100), Canarygrass ([2]; 62 g ai/ha): 0
Plant response rating (0 to 100), Canarygrass ([2]; 125 g ai/ha): 0
Plant response rating, Canarygrass ([2]; 250 g ai/ha): 0
Plant response rating, Canarygrass ([2]; 500 g ai/ha): 0
Plant response rating (0 to 100), Cocklebur ([3]; 62 g ai/ha): 15
Plant response rating (0 to 100), Cocklebur ([3]; 125 g ai/ha): 55
Plant response rating, Cocklebur ([3]; 250 g ai/ha): 55
Plant response rating, Cocklebur ([3]; 500 g ai/ha): 55
Plant response rating (0 to 100), Deadnettle ([4]; 62 g ai/ha): 0
Plant response rating (0 to 100), Deadnettle ([4]; 125 g ai/ha): 0
Plant response rating, Deadnettle ([4]; 250 g ai/ha): 0
Plant response rating, Deadnettle ([4]; 500 g ai/ha): 0
Plant response rating (0 to 100), Bromegrass, Downy ([5]; 62 g ai/ha): 0
Plant response rating (0 to 100), Bromegrass, Downy ([5]; 125 g ai/ha): 0
Plant response rating, Bromegrass, Downy ([5]; 250 g ai/ha): 0
Plant response rating, Bromegrass, Downy ([5]; 500 g ai/ha): 5
Plant response rating (0 to 100), Foxtail, Green ([6]; 62 g ai/ha): 0
Plant response rating (0 to 100), Foxtail, Green ([6]; 125 g ai/ha): 0
Plant response rating, Foxtail, Green ([6]; 250 g ai/ha): 0
Plant response rating, Foxtail, Green ([6]; 500 g ai/ha): 5
Plant response rating (0 to 100), Surinam Grass ([7]; 62 g ai/ha): 0
Plant response rating (0 to 100), Surinam Grass ([7]; 125 g ai/ha): 0
Plant response rating, Surinam Grass ([7]; 250 g ai/ha): 0
Plant response rating, Surinam Grass ([7]; 500 g ai/ha): 0
Plant response rating (0 to 100), Windgrass ([8]; 62 g ai/ha): 0
Plant response rating (0 to 100), Windgrass ([8]; 125 g ai/ha): 0
Plant response rating, Windgrass ([8]; 250 g ai/ha): 0
Plant response rating, Windgrass ([8]; 500 g ai/ha): 0
Plant response rating (0 to 100), Barley ([9]; 62 g ai/ha): 0
Plant response rating (0 to 100), Barley ([9]; 125 g ai/ha): 0
Plant response rating, Barley ([9]; 250 g ai/ha): 0
Plant response rating, Barley ([9]; 500 g ai/ha): 0
Plant response rating (0 to 100), Cupgrass, Woolly ([10]; 62 g ai/ha): 0
Plant response rating (0 to 100), Cupgrass, Woolly ([10]; 125 g ai/ha): 0
Plant response rating, Cupgrass, Woolly ([10]; 250 g ai/ha): 0
Plant response rating, Cupgrass, Woolly ([10]; 500 g ai/ha): 0
Foxtail, Giant plant response rating ([11]; 62 g ai/ha): 0
Foxtail, Giant plant response rating ([11]; 125 g ai/ha): 0
Foxtail, Giant plant response rating ([11]; 250 g ai/ha): 0
Foxtail, Giant plant response rating ([11]; 500 g ai/ha): 0
Kochia plant response rating (kochia (Kochia scoparia); 62 g ai/ha): 0
Kochia plant response rating (kochia (Kochia scoparia); 125 g ai/ha): 30
Kochia plant response rating (kochia (Kochia scoparia); 250 g ai/ha): 65
Kochia plant response rating (kochia (Kochia scoparia); 500 g ai/ha): 75
Ragweed plant response rating ([12]; 62 g ai/ha): 60
Ragweed plant response rating ([12]; 125 g ai/ha): 0
Ragweed plant response rating ([12]; 250 g ai/ha): 65
Ragweed plant response rating ([12]; 500 g ai/ha): 30
Surinam Grass plant response rating ([13]; 62 g ai/ha): 0
Surinam Grass plant response rating ([13]; 125 g ai/ha): 0
Surinam Grass plant response rating ([13]; 250 g ai/ha): 0
Surinam Grass plant response rating ([13]; 500 g ai/ha): 0
Velvetleaf plant response rating ([14]; 62 g ai/ha): 15
Velvetleaf plant response rating ([14]; 125 g ai/ha): 75
Velvetleaf plant response rating ([14]; 250 g ai/ha): 90
Velvetleaf plant response rating ([14]; 500 g ai/ha): 100

Fc1cccc(NN=C(c2ccccc2)c2c[nH]nc2-c2cc(Cl)cc(Cl)c2)c1 [Compound 58]
Plant response rating (0 to 100), Bermudagrass ([1]; 62 g ai/ha): 0
Plant response rating (0 to 100), Bermudagrass ([1]; 125 g ai/ha): 0
Plant response rating, Bermudagrass ([1]; 250 g ai/ha): 0
Plant response rating, Bermudagrass ([1]; 500 g ai/ha): 10
Plant response rating (0 to 100), Canarygrass ([2]; 62 g ai/ha): 0
Plant response rating (0 to 100), Canarygrass ([2]; 125 g ai/ha): 0
Plant response rating, Canarygrass ([2]; 250 g ai/ha): 0
Plant response rating, Canarygrass ([2]; 500 g ai/ha): 0
Plant response rating (0 to 100), Cocklebur ([3]; 62 g ai/ha): 60
Plant response rating (0 to 100), Cocklebur ([3]; 125 g ai/ha): 75
Plant response rating, Cocklebur ([3]; 250 g ai/ha): 80
Plant response rating, Cocklebur ([3]; 500 g ai/ha): 95
Plant response rating (0 to 100), Deadnettle ([4]; 62 g ai/ha): 0
Plant response rating (0 to 100), Deadnettle ([4]; 125 g ai/ha): 0
Plant response rating, Deadnettle ([4]; 250 g ai/ha): 0
Plant response rating, Deadnettle ([4]; 500 g ai/ha): 0
Plant response rating (0 to 100), Bromegrass, Downy ([5]; 62 g ai/ha): 0
Plant response rating (0 to 100), Bromegrass, Downy ([5]; 125 g ai/ha): 0
Plant response rating, Bromegrass, Downy ([5]; 250 g ai/ha): 0
Plant response rating, Bromegrass, Downy ([5]; 500 g ai/ha): 0
Plant response rating (0 to 100), Foxtail, Green ([6]; 62 g ai/ha): 0
Plant response rating (0 to 100), Foxtail, Green ([6]; 125 g ai/ha): 0
Plant response rating, Foxtail, Green ([6]; 250 g ai/ha): 0
Plant response rating, Foxtail, Green ([6]; 500 g ai/ha): 30
Plant response rating (0 to 100), Surinam Grass ([7]; 62 g ai/ha): 0
Plant response rating (0 to 100), Surinam Grass ([7]; 125 g ai/ha): 0
Plant response rating, Surinam Grass ([7]; 250 g ai/ha): 0
Plant response rating, Surinam Grass ([7]; 500 g ai/ha): 0
Plant response rating (0 to 100), Windgrass ([8]; 62 g ai/ha): 0
Plant response rating (0 to 100), Windgrass ([8]; 125 g ai/ha): 0
Plant response rating, Windgrass ([8]; 250 g ai/ha): 0
Plant response rating, Windgrass ([8]; 500 g ai/ha): 0
Plant response rating (0 to 100), Barley ([9]; 62 g ai/ha): 0
Plant response rating (0 to 100), Barley ([9]; 125 g ai/ha): 0
Plant response rating, Barley ([9]; 250 g ai/ha): 0
Plant response rating, Barley ([9]; 500 g ai/ha): 0
Plant response rating (0 to 100), Cupgrass, Woolly ([10]; 62 g ai/ha): 0
Plant response rating (0 to 100), Cupgrass, Woolly ([10]; 125 g ai/ha): 0
Plant response rating, Cupgrass, Woolly ([10]; 250 g ai/ha): 0
Plant response rating, Cupgrass, Woolly ([10]; 500 g ai/ha): 0
Plant response rating, Smartweed ([15]; 31 g ai/ha): 0
Plant response rating, Smartweed ([15]; 125 g ai/ha): 50
